Legend:
[1] = system: phosphorylated MYPT1 in hPASMCs; assay: Western blot of MYPT1 phosphorylation (Thr696) in ET-1-stimulated hPASMCs; format: cell-based, human; conditions: compound 1 hour, then ET-1 0.1 µM 1 hour, ET-1 did not increase p-MYPT1
[2] = system: phosphorylation of MLC in hPASMCs; assay: Western blot of MLC phosphorylation in ET-1-stimulated hPASMCs; conditions: then ET-1 0.1 µM 1 h
Protocol: Before stimulation, 2 × 10^5 hPASMCs were cultured with serum-starved medium (Humedia-SB containing 1% FBS and antibiotics [Kurabo]), followed by stimulation with serum-starved medium containing 0.1 µM ET-1 or 10 ng/mL recombinant PDGF and treatment with different reagents. The isolated proteins were separated and analyzed by western blotting.
proteins were then isolated with RIPA buffer (25 mM Tris-HCl [pH 7.6], 150 mM NaCl,
1% NP-40, 1% sodium deoxycholate, and 0.1% sodium dodecyl sulfate) containing prote-
ase inhibitors (Protease Inhibitor Cocktail; Nacalai Tesque, Kyoto, Japan) and phosphatase
inhibitors (PhosSTOP; Roche, Basel, Switzerland). Proteins from each sample were sepa-
rated by sodium dodecyl sulfate polyacrylamide gel electrophoresis and transferred onto
polyvinylidene difluoride (PVDF) membranes. The membranes were then blocked with
5% bovine serum albumin diluted in Tris-buffered solution containing 0.05% Tween 20
(TBS-T) for 1 hour at room temperature. The blocked membranes were incubated with
primary antibodies at 4°C overnight, followed by washing with TBS-T. The membranes
were then incubated with a secondary antibody for 1 h at room temperature. Bands were
visualized by a chemiluminescence reaction using Pierce ECL Western Blotting (Thermo
Fisher Scientific, Waltham, MA, CSA) and LAS-4000 (Fuji Film, Tokyo, Japan).
tein expression was normalized to that of -actin.

[3] = system: phosphorylation of mTOR in hPASMCs; assay: Western blot of mTOR phosphorylation in PDGF-stimulated hPASMCs; conditions: concentration not given, 1 h, then PDGF 10 ng/mL 1 h
hPASMCs = assay: Cell proliferation assay (Cell Counting Kit-8) of PDGF-stimulated hPASMCs; conditions: 0.1–10 µM compound, PDGF 10 ng/mL, 72 h
Protocol: Human pulmonary artery SMCs (hPASMCs) were cultured in Humedia-SG2 (Kurabo, Osaka, Japan) until stimulation and were plated in 96-well plates at 2.5 × 10^3 cells/well in serum-starved medium (Humedia-SB supplemented with 1% fetal bovine serum [FBS] and antibiotics [Kurabo]). […] The proliferation of hPASMCs was evaluated using a Cell Counting Kit-8 (Dojindo Laboratories, Kumamoto, Japan).
hPASMCs were purchased from Kurabo (Osaka, Japan). The cells were cultured in
6-cm Petri dishes coated with fibronectin (Corning, Corning, NY, USA) and Humedia-
SG2 (Kurabo) at 37 °C and 5% CO2 in a humidified air incubator until the other assays
2.4. Cell Proliferation Analysis
hPASMCs were cultured in Humedia-SG2 (Kurabo) until stimulation and were
plated in 96-well plates at 2.5 × 10^3 cells/well in serum-starved medium (Humedia-SB sup-
plemented with 1% FBS and antibiotics [Kurabo]). Then, hPASMCs were incubated with
The proliferation of hPASMCs was evaluated using Cell Counting
Kit-8 assays (Dojindo Laboratories, Kumamoto, Japan) according to the manufacturer’s

Compound	Ratio of p-MYPT1 (Thr696) to total MYPT1, difference versus ET-1 without compound [1]	Phosphorylation of MLC (p-MLC/total MLC) ([2]; concentration not given, 1 h)	Phosphorylation of mTOR (phospho-/total mTOR) [3]	Proliferation of hPASMCs induced by PDGF (hPASMCs)	Phosphorylation of MLC (p-MLC/total MLC) ([2]; 10 μM compound 1 h)
COc1ccccc1Oc1c(NS(=O)(=O)c2ccc(C(C)(C)C)cc2)nc(-c2ncccn2)nc1OCCO [Bosentan]	insignificant	the difference did not reach significant levels			
O=S(=O)(c1cccc2cnccc12)N1CCCNCC1 [Fasudil]			did not have a suppressive effect	observed only at the highest concentration	significantly decreased
O=c1cc(N2CCOCC2)oc2c(-c3ccccc3)cccc12 [LY294002]			significantly reduced	suppressed the proliferation of hPASMCs induced by stimulation with PDGF in a concentration-dependent manner	

Reference: paper PMC8750965, “The Isoquinoline-Sulfonamide Compound H-1337 Attenuates SU5416/Hypoxia-Induced Pulmonary Arterial Hypertension in Rats” (Cells, 2021)
